{"source": "patent US10450258B2", "about": "“Substituted aromatic compounds for the treatment of pulmonary fibrosis, liver fibrosis, skin fibrosis and cardiac fibrosis” (PROMETIC PHARMA SMT LIMITED, priority 2013, dated 2019)", "key": {"[1]": {"tested_on": "bleomycin-induced pulmonary fibrosis mouse model", "assay": "Bleomycin-induced pulmonary fibrosis mouse model: body weight and lung histology", "type": "in vivo, mouse (male C57BL6)", "procedure": "Intratracheal instillation of the anticancer drug bleomycin into the mouse results in acute inflammation followed by a chronic fibrotic response. Therefore, evaluation of candidate antifibrotic drugs such as Compound I can be undertaken by treatment of the mice at appropriate time points and histologic, biochemical and cellular readouts may be used to monitor candidate drug efficacy in this model.\nMale C57BL6 mice are administered intratracheal instillation of bleomycin sulphate (0.025 U) at day 0, randomized and administered Compound I (oral administration, 100 mg/kg and 200 mg/kg) on day 7 to day 20.\nLesions score was evaluated using HEP (Hemalun with Eosin/Ploxine) and Masson's trichrome staining. Lesions score was recorded as 1) Consolidation as shown by disrupted lung architecture (cellular and/or fibrosis) and 2) Alveolar wall as shown by thickness and shrinking outside of consolidated area.\nIt was therefore evaluated side-by-side with Compound I in the bleomycin-induced pulmonary fibrosis mouse model by the same protocol described in Example 4 above. Compound I (200 mg/kg) and pirfenidone (400 mg/kg) were orally administered either alone or in combination.\nLesions score was evaluated using HEP (Hemalun with Eosin/Ploxine) and Masson's trichrome staining and recorded as 1) Consolidation as shown by disrupted lung architecture (cellular and/or fibrosis), and 2) Alveolar wall as shown by thickness and shrinking outside of consolidated area.\nThe lesions score as determined by the percentage of leukocyte infiltration (inflammatory zone) multiplied by the percentage of collagen found in the leukocyte infiltrate was quantified by histomorphometry using Masson's trichrome staining.\nVisual grading of pulmonary fibrosis was also determined according to Ashcroft's score. Briefly, the entire fields of each lung section were read by a blinded examiner, and each field was visually graded from 0 to 8. Criteria for grading lung fibrosis were as follows: Grade 0=normal lung; Grade 1=minimal fibrous thickening of alveolar or bronchiolar walls; Grade 3=moderate thickening of walls without obvious damage to lung architecture; Grade 5=increased fibrosis with definitive damage to lung structure and formation of fibrous bands or small fibrous masses; Grade 7=severe distortion of structure and large fibrous area; Grade 8=total fibrous obliteration of lung fields."}, "[2]": {"tested_on": "collagen 1 mRNA in HK-2 cells (epithelial cells)", "assay": "Inhibition of collagen mRNA in TGF-β-treated HK-2 epithelial cells", "type": "cell-based", "conditions": "Homo sapiens, HK-2, compound 0.5 mM", "procedure": "CTGF, collagen 1 and α-SMA are fibrotic markers produced by activated fibroblasts and by epithelial cells that undergo to epithelial-mesenchymal transition (EMT).\nTable 2: Percentage of inhibition of collagen in epithelial cells (HK2 cells) and fibroblasts (NHDF) and percentage of inhibition of α-SMA in fibroblasts (NRK-49F and NHDF) has been determined for several compounds according the invention. In all cases, the mRNA of collagen and α-SMA has been measured, and the inhibition was evaluated in presence of a respective concentration of the tested compound. The compounds have been tested at different concentrations [mM]. All compounds reduce the expression of collagen and α-SMA in HK-2, NHDF and NRK-49F cells."}, "[3]": {"tested_on": "normal human dermal fibroblasts (NHDF)", "assay": "TGF-β-induced and basal CTGF, collagen 1 and α-SMA transcript expression in NHDF (quantitative real-time PCR)", "type": "cell-based", "procedure": "The effect of Compound of the invention on skin fibrosis was studied using normal human dermal fibroblasts (NHDF).\nIn vitro analysis was undertaken to determine the effect of Compound I on TGF-β-induced CTGF, collagen 1 and α-SMA (markers of fibrosis) on normal human dermal fibroblasts (NHDF). Expression of the profibrotic (CTGF) and fibrotic markers (collagen 1 and α-SMA) were determined by quantitative real-time PCR.\nMyofibroblasts are terminally differentiated cells derived from fibroblasts, epithelial and mesenchymal stem/stromal (fibrocytes) cells that play an important role in tissue fibrosis via increased matrix synthesis such as collagen. α-SMA is a well-known marker of myofibroblast."}}, "note": "Entries after “also recorded” stand apart in the source; their conditions may differ.", "data": [{"smiles": "CCCCCc1cccc(CC(=O)[O-])c1.[Na+]", "note": "[Compound I, Sodium Salt of 3-pentylphenylacetic acid]", "values": [{"measurement": "body weight loss", "setting": "[1]; oral 200 mg/kg, day 7 to day 20, FIG. 1", "value": "reduced this body weight loss"}, {"measurement": "recovery of the body weight loss", "setting": "[1]; oral 100 and 200 mg/kg vs vehicle (Bleo), FIG. 1 legend", "value": "recovery of the body weight loss"}, {"measurement": "histological lesions score of lungs (HEP and Masson's trichrome)", "setting": "[1]; oral 100 and 200 mg/kg, day 7 to day 20, FIG. 2", "value": "significant reduction of lesions; also recorded: reduced histological lesions in a dose-dependent manner"}, {"measurement": "lesions and fibrosis in lungs (photomicrographs)", "setting": "[1]; oral 100 and 200 mg/kg, FIG. 3", "value": "reduced lesions and fibrosis in lungs"}, {"measurement": "lesions score: percentage of leukocyte infiltration multiplied by percentage of collagen in the leukocyte infiltrate (histomorphometry, Masson's trichrome)", "setting": "[1]; oral Compound I 200 mg/kg, FIG. 9", "value": "significantly reduced"}, {"measurement": "percentage of lungs affected by bleomycin", "setting": "[1]; oral, Compound I 200 mg/kg, pirfenidone 400 mg/kg, alone or combined, FIG. 7", "value": "lower"}, {"measurement": "histological lesion score of lungs (HEP and Masson's trichrome)", "setting": "[1]; oral, Compound I 200 mg/kg, pirfenidone 400 mg/kg, alone or combined, FIG. 8", "value": "significantly reduced histological lesions"}, {"measurement": "visual grading of pulmonary fibrosis (Ashcroft's score)", "setting": "[1]; oral, Compound I 200 mg/kg, pirfenidone 400 mg/kg, alone or combined, FIG. 11", "value": "reduced"}, {"measurement": "lesions and fibrosis in lungs (photomicrographs stained with HEP)", "setting": "[1]; oral, Compound I 200 mg/kg, pirfenidone 400 mg/kg, FIG. 10", "value": "reduced lesions and fibrosis in lungs"}, {"measurement": "inhibition at 500 µM", "setting": "[2]", "value": 86, "unit": "%"}, {"measurement": "TGF-β-induced CTGF transcript expression", "setting": "[3]; TGF-β 5 ng/ml, compound 500 μM, FIG. 23", "value": "inhibited"}, {"measurement": "TGF-β-induced collagen 1 transcript expression", "setting": "[3]; TGF-β 5 ng/ml, compound 500 μM, FIG. 24", "value": "inhibited"}, {"measurement": "TGF-β-induced α-SMA transcript expression", "setting": "[3]; TGF-β 5 ng/ml, compound 500 μM, FIG. 25", "value": "inhibited"}, {"measurement": "inhibition of α-SMA in TGF-β induced fibroblasts", "setting": "[3]; TGF-β induced", "value": 90, "unit": "%"}, {"measurement": "basal expression of CTGF", "setting": "[3]; compound alone (0.5 mM), no TGF-β, FIG. 23", "value": "decreased basal expression"}, {"measurement": "basal expression of collagen 1", "setting": "[3]; compound alone (0.5 mM), no TGF-β, FIG. 24", "value": "decreased basal expression"}, {"measurement": "basal expression of α-SMA", "setting": "[3]; compound alone (0.5 mM), no TGF-β, FIG. 25", "value": "decreased basal expression"}]}]}
